Where a name gives a salt, the structure may show the parent alone.
How the values were obtained:
Type in all cases: cell-based
[1] = system: HT 29 human colonic tumour cell line; test: Growth inhibition test (MTT) for cytotoxic properties, HT 29; conditions: HT 29 cells
Method: (§1) 1. Growth Inhibition Test for the Determination of Cytotoxic Properties
(§2) They were then trypsinized and taken up in RPMI plus 10% FCS to give a cell count of 50,000 cells/ml. 100 μl of cell suspension/well were added to a 96 microwell plate and incubated for 1 day at 37° C. in a CO2 incubator. A further 100 μl of RPMI medium and 1 μl of DMSO were then added with the test substances. The growth was checked after day 3 and day 6. To do this, 40 μl of MTT solution (3-(4,5-dimethylthiazol-2-yl)-2,5-diphenyl-tetrazolin bromide) were added to each microwell at a starting concentration of 5 mg/ml of H2O. Incubation was carried out at 37° C. for 5 hours in the CO2 incubator. The medium was then aspirated and 100 μl of i-propanol/well were added. After shaking for 30 min with 100 μl of H2O, the extinction was measured at 540 nm using a Titertek Multiskan MCC/340 (flow).
(§3) The cytotoxic action is indicated in Table 1 as an IC50 value in each case for the SW 480 and HT 29 and B16F10 cell lines: […]

[2] = system: B16F10 mouse melanoma cell line; test: Growth inhibition test (MTT) for cytotoxic properties, B16F10; conditions: B16F10 cells
Method: as §1, §2, §3

[3] = system: SW 480 human colonic tumour cell line; test: Growth inhibition test (MTT) for cytotoxic properties, SW 480; conditions: SW 480 cells
Method: as §1, §2, §3

Structure (SMILES) | IC50 [1] [nM] | IC50 [2] [nM] | IC50 [3] [nM]
CCc1c2c(nc3ccc(O)cc13)-c1cc3c(c(=O)n1C2)COC(=O)C3(CC)OC(=O)[C@@H](NC(=O)[C@H](CCCCN)NC(=S)Nc1ccc(O)cc1)C(C)C (stereo partly drawn) [8), 7-Ethyl-10-hydroxy-20-O-[N^α-(4-hydroxy-phenylamino-thiocarbonyl)-lysyl-valyl]-camptothecin, hydrochloride] | 200 | 3000 | 150
CCC1(OC(=O)C(NC(=O)C(CCCCN)NC(=S)Nc2cccc([N+](=O)[O-])c2)C(C)C)C(=O)OCc2c1cc1n(c2=O)Cc2cc3ccccc3nc2-1 (stereo not drawn) [4.17), 20-O-[N^α-(3-Nitro-phenylamino-thiocarbonyl)-lysyl-valyl]-camptothecin, hydrochloride] | 170 | 800 | 300
CCC1(OC(=O)C(Cc2ccccc2)NC(=O)C(CCCCN)NC(=S)Nc2ccc(O)cc2)C(=O)OCc2c1cc1n(c2=O)Cc2cc3ccccc3nc2-1 (stereo not drawn) [4.3), 20-O-[N^α-(4-Hydroxy-phenylamino-thiocarbonyl)-lysyl-phenyl-alanyl]-camptothecin] | 20 | 100 | 20
CCC1(OC(=O)[C@H](CC(C)C)NC(=O)[C@H](CCCCN)NC(=S)Nc2ccc(O)cc2)C(=O)OCc2c1cc1n(c2=O)Cc2cc3cc4c(cc3nc2-1)OCO4 (stereo partly drawn) [6), 10,11-(Methylenedioxy)-20-O-[N^α-(4-hydroxy-phenylaminothio-carbonyl)-lysyl-leucyl]-camptothecin, hydrochloride] | 3 | 15 | 5
NCCCCC(NC(=S)Nc1ccc(C(=O)O)cc1)C(=O)NC1C=CCC2CN(c3c(F)cc4c(=O)c(C(=O)O)cn(C5CC5)c4c3Cl)CC21 (racemic) [2.9), N-[N^α-(4-Carboxy-phenylamino-thiocarbonyl)-lysyl]-quinolone-a] | 2000 | 1000 | 2000
CCC1(OC(=O)C(NC(=O)C(Cc2c[nH]cn2)NC(=S)Nc2ccc(O)cc2)C(C)C)C(=O)OCc2c1cc1n(c2=O)Cc2cc3ccccc3nc2-1 (stereo not drawn) [4.19), 20-O-[N^α-(4-Hydroxy-phenylamino-thiocarbonyl)-histidyl-valyl]-camptothecin, hydrochloride] | 40 | 400 | 80
CCc1c2c(nc3ccccc13)-c1cc3c(c(=O)n1C2)COC(=O)C3(CC)OC(=O)C(C)NC(=O)C(CCCCNC(=S)Nc1ccc(O)cc1)NC(=S)Nc1ccc(O)cc1 (stereo not drawn) [5.1), 7-Ethyl-20-O-[N^α,N^ε-bis-(4-hydroxy-phenylamino-thiocarbonyl)-lysyl-alanyl]-camptothecin] | 20 | 50 | 25
CCC1(O)C(=O)OCc2c1cc1n(c2=O)Cc2c-1nc1ccccc1c2COC(=O)[C@@H](NC(=O)[C@H](CCCCN)NC(=S)Nc1ccc(O)cc1)C(C)C (stereo partly drawn) [7), 7-[N^α-(4-Hydroxy-phenylamino-thiocarbonyl)-lysyl-valyloxymethyl]-camptothecin, hydrochloride] | 80 | 1000 | 60
CC(NC(=S)Nc1ccc(O)cc1)C(=O)NC1C=CCC2CN(c3c(F)cc4c(=O)c(C(=O)O)cn(C5CC5)c4c3Cl)CC21 (racemic) [2.2), N-[N-(4-Hydroxy-phenylamino-thiocarbonyl)-D-alanyl]-quinolone-a] | 6000 | 4000 | 15000
CC[C@@]1(OC(=O)C(CC(=O)O)NC(=O)C(CCCCNC(=S)Nc2ccc(O)cc2)NC(=S)Nc2ccc(O)cc2)C(=O)OCc2c1cc1n(c2=O)Cc2cc3ccccc3nc2-1 (stereo partly drawn) [4.22), 20-O-[N^α,N^ε-bis-(4-Hydroxy-phenylamino-thiocarbonyl)-lysyl-aspartyl]-camptothecin, sodium salt] | 40 | 100 | 40
CCC1(OC(=O)C(CO)NC(=O)C(CCCCNC(=S)Nc2ccc(O)cc2)NC(=S)Nc2ccc(O)cc2)C(=O)OCc2c1cc1n(c2=O)Cc2cc3ccccc3nc2-1 (stereo not drawn) [4.23), 20-O-[N^α,N^ε-bis-(4-Hydroxy-phenylamino-thiocarbonyl)-lysyl-seryl]-camptothecin] | 70 | 150 | 80
NCCCC[C@H](NC(=S)Nc1ccc(O)cc1)C(=O)Nc1ccc2c(c1)CN1C(=O)c3ccccc3C1=N2 [1.2), N-[N^α-(4-Hydroxy-phenylamino-thiocarbonyl)-lysyl]-batracylin] | 40000 |  | 25000
NCCCCC(NC(=S)Nc1ccc(N=C=S)cc1)C(=O)NC1C=CCC2CN(c3c(F)cc4c(=O)c(C(=O)O)cn(C5CC5)c4c3Cl)CC21 (racemic) [2.8), N-[N^α-(4-Isothiocyanato-phenylamino-thiocarbonyl)-lysyl]-quinolone-a] | 100 | 100 | 200
O=C(O)c1cn(C2CC2)c2c(Cl)c(N3CC4CC=CC(NC(=O)C(CCCCNC(=S)Nc5ccc(O)cc5)NC(=S)Nc5ccc(O)cc5)C4C3)c(F)cc2c1=O (racemic) [2.5), N-[N^α,N^ε-bis-(4-Hydroxy-phenylamino-thiocarbonyl)-D-lysyl]-quinolone-a] | > 200000 | 200000 | 200000
CC(NC(=O)C(CCCCN)NC(=S)Nc1ccc(O)cc1)C(=O)NC1C=CCC2CN(c3c(F)cc4c(=O)c(C(=O)O)cn(C5CC5)c4c3Cl)CC21 (racemic) [2.11), N-[N^α-(4-Hydroxy-phenylamino-thiocarbonyl)-lysyl-D-alanyl]-quinolone-a] | 150000 | 30000 | 60000
CCC1(OC(=O)C(CC(C)C)NC(=O)C(CCCCN)NC(=S)Nc2ccc(O)cc2)C(=O)OCc2c1cc1n(c2=O)Cc2cc3ccccc3nc2-1 (stereo not drawn) [4.20), 20-O-[N^α-(4-Hydroxy-phenylamino-thiocarbonyl)-lysyl-leucyl]-camptothecin, hydrochloride] | 60 | 300 | 70
CCC1(OC(=O)C(NC(=O)C(CCCCN)NC(=S)N(C)c2ccccc2)C(C)C)C(=O)OCc2c1cc1n(c2=O)Cc2cc3ccccc3nc2-1 (stereo not drawn) [4.8), 20-O-[N^α-(Phenyl-methyl-amino-thiocarbonyl)-lysyl-valyl]-camptothecin, hydrochloride] | 150 | 800 | 300
NCCCC(NC(=S)Nc1ccc(O)cc1)C(=O)NC1C=CCC2CN(c3c(F)cc4c(=O)c(C(=O)O)cn(C5CC5)c4c3Cl)CC21 (racemic) [2.6), N-[N^α-(4-Hydroxy-phenylamino-thiocarbonyl)-ornithyl]-quinolone-a, hydrochloride] | 300 | 60 | 200
CCC1(OC(=O)C(NC(=O)C(CCCCN)NC(=S)Nc2ccc(N)cc2)C(C)C)C(=O)OCc2c1cc1n(c2=O)Cc2cc3ccccc3nc2-1 (stereo not drawn) [4.18), 20-O-[N^α-(4-Amino-phenylamino-thiocarbonyl)-lysyl-valyl]-camptothecin, hydrochloride] | 120 | 400 | 300
NCCC(NC(=S)Nc1ccc(O)cc1)C(=O)NC1C=CCC2CN(c3c(F)cc4c(=O)c(C(=O)O)cn(C5CC5)c4c3Cl)CC21 (racemic) [2.3), N-[N^α-(4-Hydroxy-phenylamino-thiocarbonyl)-α,γ-diaminobutyryl]-quinolone-a, hydrochloride] | 700 | 200 | 900
CC[C@@]1(OC(=O)[C@@H](NC(=O)[C@H](CCCCN)NC(=S)Nc2cccc(O)c2)C(C)C)C(=O)OCc2c1cc1n(c2=O)Cc2cc3ccccc3nc2-1 [4.12), 20-O-[N^α-(3-Hydroxy-phenylamino-thiocarbonyl)-lysyl-valyl]-camptothecin, hydrochloride] | 30 | 200 | 40
CCC1(OC(=O)C(NC(=O)C(CCCCNC(=S)Nc2ccc(O)cc2)NC(=S)Nc2ccc(O)cc2)C(C)C)C(=O)OCc2c1cc1n(c2=O)Cc2cc3ccccc3nc2-1 (stereo not drawn) [4.21), 20-O-{[N^α-N^ε-bis-(4-Hydroxy-phenylamino-thiocarbonyl)]-lysyl-valyl}-camptothecin, hydrochloride] | 300 | 3000 | 700
CCC1(OC(=O)C(NC(=O)C(CCCCN)NC(=S)Nc2ccc([N+](=O)[O-])cc2)C(C)C)C(=O)OCc2c1cc1n(c2=O)Cc2cc3ccccc3nc2-1 (stereo not drawn) [4.16), 20-O-[N^α-(4-Nitro-phenylamino-thiocarbonyl)-lysyl-valyl]-camptothecin, hydrochloride] | 120 | 600 | 150
NC(CCCCNC(=S)Nc1ccc(O)cc1)C(=O)Nc1ccc2c(c1)CN1C(=O)c3ccccc3C1=N2 (centres unmarked) [1.3), N-[N^ε-(4-Hydroxy-phenylamino-thiocarbonyl)-lysyl]-batracylin] | 70000 |  | 45000
CC(NC(=O)C(CCC(=O)O)NC(=S)Nc1ccc(O)cc1)C(=O)Nc1ccc2nc3n(c(=O)c2c1)Cc1ccccc1-3 [1.6), N-[N-(4-Hydroxy-phenylamino-thiocarbonyl)-glutamyl-D-alanyl]-batracylin] | 800000 |  | 550000
CC(NC(=O)C(CO)NC(=S)Nc1ccc(O)cc1)C(=O)Nc1ccc2c(c1)CN1C(=O)c3ccccc3C1=N2 [1.5), N-[N-(4-Hydroxy-phenylamino-thiocarbonyl)-seryl-D-alanyl]-batracylin] | 400000 |  | 250000

— US20020173468A1, “MODIFIED CYTOSTATIC AGENTS” (priority 1996, published 2002)
